Source: PMC5834492, “Antimycobacterial drug discovery using Mycobacteria-infected amoebae identifies anti-infectives and new molecular targets” (Scientific Reports, 2018)

What was measured:
Mtb H37Rv in THP-1 = test system: Mtb H37Rv in THP-1; parameters: method as in Sorrentino et al, 2015; settings: ref Sorrentino et al, 2015, cited from earlier work; for Intracelullar MIC90 in THP-1: THP1 / Mtb H37Rv infection assay; for Extracellular MIC90/ Inracellular MIC90: ratio
D. discoideum GFP-ABD = settings: 10 µM
[1] = test system: M. marinum in BV2 microglial cells; assay type: cell-based, Mycobacterium marinum
M. marinum GFP = assay type: cell-based, Mycobacterium marinum; settings: 10 µM; antibiotic assay
Mtb H37Rv = test system: Mtb H37Rv; parameters: method as in Sorrentino et al, 2015; settings: ref Sorrentino et al, 2015; cited from earlier work
[2] = test system: M. marinum in A. castellanii; assay type: cell-based, Mycobacterium marinum
M. marinum luxCDABE = assay type: cell-based, Mycobacterium marinum

SMILES	Intracelullar MIC90 in THP-1 (Mtb H37Rv in THP-1)	Extracellular MIC90/ Inracellular MIC90 (Mtb H37Rv in THP-1)	D. discoideum GFP-ABD normalised growth, control=1.00, mean (D. discoideum GFP-ABD)	IC50 [1]	BV2 / M. marinum normalised growth, control=1.00, mean ([1]; 10 µM)	M. marinum GFP normalised growth, control=1.00, mean (M. marinum GFP)	Extracellular MIC90 (Mtb H37Rv)	A. castellanii / M. marinum normalised growth, control=1.00, mean ([2]; 10 µM)	M. marinum luxCDABE normalised growth, control=1.00, mean (M. marinum luxCDABE; 10 µM)	Antibiotic assays: M. marinum luxCDABE (M. marinum luxCDABE)	hit in BV2/M. marinum assay True/False ([1]; 10 µM)	Hits A. castellanii/M. marinum assay True/False ([2]; 10 µM)	M. marinum luxCDABE normalised growth, control = 1.00, mean (M. marinum luxCDABE; 10 µM)	Intracellular infection assays: BV2 / M. marinum [1]	Intracellular infection assays: A. castellanii / M. marinum [2]
Cc1nc2ccccn2c1C(=O)NCc1ccccc1 [GSK957094A]	5.55 µM	0.36	0.93	7.59 µM	0.52	0.0746	2 µM	0.54	0.11	–	–	–	–	–	–
COc1ccc2nc(C)cc(OCC(=O)Nc3cc(C)cc(C)c3)c2c1 [GSK749336A]	5.55 µM	0.05	0.67	7.32 µM	0.63	0.14	0.3 µM	0.58	0.00	–	–	–	–	–	–
O=C(O)C(F)(F)F.c1ccc(C[C@H]2CN(c3nccc(Oc4ccc(-n5ccnc5)cc4)n3)CCN2)cc1 [GSK1519001A]	–	–	0.76	–	0.74	0.97	–	1.14	0.18	–	–	–	–	–	–
O=C(COc1cccc(F)c1)Nc1nc(-c2ccccn2)cs1 [GSK920684A]	50 µM	–	–	–	–	–	–	–	–	0.00	–	–	–	–	–
Clc1ccc(Nc2nc(-c3ccccn3)cs2)nc1 [GSK445886A]	>50 µM	–	–	1.75 µM	0.84	0.31	–	1.31	0.075	–	–	–	–	–	–
CSc1ccc(-c2nnc(NC(=O)c3ccc(Cl)s3)o2)cc1 [GSK1650514A]	>50 µM	–	1.16	19.7 µM	0.90	0.91	–	1.31	0.00	–	–	–	–	–	–
N#Cc1ccc2c(c1)CCN(CCCSc1ccnc3cc(C(F)(F)F)ccc13)CC2 [GSK254610A]	–	–	0.88	–	0.50	0.05	–	0.87	0.00	–	TRUE	FALSE	0,00	–	–
Cc1ccc2[nH]c(C3CCCNC3)c(-c3ccncc3)c2c1 (stereo not shown) [GSK1905227A]	–	–	0.85	9.76 µM	0.77	0.55	–	1.23	0.08	–	–	–	–	–	–
CSc1ccc(C(=O)Nc2nc(-c3ccccn3)cs2)cc1 [GSK921295A]	50 µM	0.17	–	–	–	–	8.7 µM	–	–	0.00	–	–	–	1.23	1.37
COc1ccc2sc(Nc3nc(-c4ccccn4)cs3)nc2c1 [GSK690382A]	–	–	1.25	11.9 µM	0.85	0.98	–	1.07	0.00	–	–	–	–	–	–
COc1cc(CN2CCC3(C=Cc4ccccc43)CC2)cc2c1OCO2 [SB-354364]	–	–	0.86	16.8 µM	0.80	0.83	–	1.02	1.00	–	–	–	–	–	–
